According to patent US20260125378A2, “Heterocyclic Compounds” (BeOne Medicines I GmbH, priority 2023, published 2026):

Tests used:
[1] = target: T1, Full length DGKζ (in-house protein M1-V929) (Homo sapiens, UniProt Q13574); assay: Biochemical DGK IC50 assay (ADP-Glo, lipid micelle substrate), DGKζ; conditions: 1 hour preincubation, 1 hour reaction, room temperature
T1 construct: His (N); TEV site (N); made in house; host or cells: Sf9 insect cells (Bac-to-Bac baculovirus)
Procedure, shortened: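 Full-length human DGKζ (M1-V929, His-TEV tagged, Sf9 baculovirus-expressed) with DAG/PS lipid micelle substrate in octyl glucoside, at room temperature in 50 mM HEPES, 10 mM MgCl2, 0.01 mM CaCl2 buffer.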

[2] = target: T2, Full length DGKα (D21-10BG, SignalChem) (Homo sapiens, UniProt P23743); assay: Biochemical DGK IC50 assay (ADP-Glo, lipid micelle substrate), DGKα; conditions: 1 hour preincubation, 1 hour reaction, room temperature
T2 construct: Full length DGKα (D21-10BG, SignalChem); purchased SignalChem D21-10BG
Procedure, shortened: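 Full-length human DGKα with DAG/PS lipid micelle substrate (in octyl glucoside buffer), reacted 1 h at room temperature in 50 mM HEPES, 10 mM MgCl2, 0.01 mM CaCl2, 0.1 mM Na3VO4, 0.01% BSA, 0.005% Tween-20. ADP formed read by ADP-Glo luminescence; IC50 from inhibition across increasing compound concentrations.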

T2 sequence (P23743 whole entry): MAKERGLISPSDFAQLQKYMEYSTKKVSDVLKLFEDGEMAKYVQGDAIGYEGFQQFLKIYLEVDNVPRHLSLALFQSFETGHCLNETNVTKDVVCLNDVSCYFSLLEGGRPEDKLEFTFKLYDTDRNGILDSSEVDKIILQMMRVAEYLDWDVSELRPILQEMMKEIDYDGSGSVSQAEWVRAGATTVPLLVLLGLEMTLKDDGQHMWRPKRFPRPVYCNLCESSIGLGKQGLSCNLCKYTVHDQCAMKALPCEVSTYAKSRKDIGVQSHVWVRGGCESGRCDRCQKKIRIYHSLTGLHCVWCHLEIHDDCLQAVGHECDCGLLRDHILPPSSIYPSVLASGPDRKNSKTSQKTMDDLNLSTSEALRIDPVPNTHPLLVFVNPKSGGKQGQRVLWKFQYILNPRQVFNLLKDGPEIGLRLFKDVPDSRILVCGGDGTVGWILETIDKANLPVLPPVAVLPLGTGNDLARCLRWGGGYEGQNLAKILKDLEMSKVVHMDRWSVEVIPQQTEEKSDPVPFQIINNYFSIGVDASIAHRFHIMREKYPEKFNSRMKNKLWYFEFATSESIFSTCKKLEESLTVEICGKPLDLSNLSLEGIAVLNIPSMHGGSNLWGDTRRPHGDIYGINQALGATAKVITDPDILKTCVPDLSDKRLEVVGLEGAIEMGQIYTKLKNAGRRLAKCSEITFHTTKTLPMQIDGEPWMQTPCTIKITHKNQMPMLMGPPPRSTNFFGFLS
T1 sequence (Q13574 1-929 isoform Q13574-4): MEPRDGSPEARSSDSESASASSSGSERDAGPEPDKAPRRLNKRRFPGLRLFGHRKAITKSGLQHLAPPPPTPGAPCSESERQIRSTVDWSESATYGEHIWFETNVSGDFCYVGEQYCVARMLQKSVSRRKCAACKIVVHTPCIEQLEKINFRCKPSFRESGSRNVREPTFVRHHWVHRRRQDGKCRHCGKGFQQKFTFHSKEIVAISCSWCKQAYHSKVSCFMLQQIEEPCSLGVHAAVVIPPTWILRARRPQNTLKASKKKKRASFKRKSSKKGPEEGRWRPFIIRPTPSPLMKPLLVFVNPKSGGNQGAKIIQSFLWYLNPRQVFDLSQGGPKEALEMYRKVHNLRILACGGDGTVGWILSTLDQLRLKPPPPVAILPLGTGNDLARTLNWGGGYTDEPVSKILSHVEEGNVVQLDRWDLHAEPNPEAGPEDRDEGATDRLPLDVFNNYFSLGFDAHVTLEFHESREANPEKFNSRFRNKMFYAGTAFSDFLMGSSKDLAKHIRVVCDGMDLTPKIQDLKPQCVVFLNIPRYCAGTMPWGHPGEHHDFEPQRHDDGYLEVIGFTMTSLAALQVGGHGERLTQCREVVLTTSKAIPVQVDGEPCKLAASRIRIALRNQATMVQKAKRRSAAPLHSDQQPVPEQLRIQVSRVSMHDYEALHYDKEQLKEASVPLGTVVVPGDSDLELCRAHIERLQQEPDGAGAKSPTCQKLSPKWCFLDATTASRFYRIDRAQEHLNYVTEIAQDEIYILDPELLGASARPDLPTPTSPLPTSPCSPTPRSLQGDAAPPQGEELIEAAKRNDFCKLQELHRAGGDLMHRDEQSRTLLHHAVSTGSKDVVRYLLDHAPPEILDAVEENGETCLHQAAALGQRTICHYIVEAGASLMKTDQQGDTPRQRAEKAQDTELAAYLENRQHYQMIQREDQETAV

| SMILES | IC50 [1] | IC50 [2] |
| --- | --- | --- |
| CCn1c(CC#N)nc2c(N3C[C@@H](C)N(C(C)c4ccc5c(n4)OC(C)(C)CO5)C[C@@H]3C)c(F)c(=O)n(C)c21 (stereo partly drawn) [Compound A21, 2-(7-((2S,5R)-4-(1-(3,3-dimethyl-2,3-dihydro-[1,4]dioxino[2,3-b]pyridin-6-yl)ethyl)-2,5-dimethylpiperazin-1-yl)-3-ethyl-6-fluoro-4-methyl-5-oxo-4,5-dihydro-3H-imidazo[4,5-b]pyridin-2-yl)acetonitrile] | 0.061 µM | > 150 µM |
| COC[C@H]1CN(C(C)c2ccc(F)cc2C(F)(F)F)[C@H](C)CN1c1nc(=O)n(C)c2c1nc(CC#N)n2C (single isomer, unassigned) [Compound A10a] | 0.405 µM | > 10 µM |
| CCn1c(CC#N)nc2c(N3C[C@@H](C)N(C(C)c4cccc(C5(C)CC5)c4)C[C@@H]3C)nc(=O)n(C)c21 (stereo partly drawn) [Compound A126, 2-(6-((2S,5R)-2,5-dimethyl-4-(1-(3-(1-methylcyclopropyl)phenyl)ethyl)piperazin-1-yl)-9-ethyl-3-methyl-2-oxo-3,9-dihydro-2H-purin-8-yl)acetonitrile] | 0.024 µM | 124 µM |
| COCc1cc(F)ccc1C(C)N1C[C@H](C)N(c2nc(=O)n(C)c3c2nc(CC#N)n3C)C[C@H]1C (single isomer, unassigned) [Compound A27b] | 0.015 µM | 99.5 µM |
| C=C(C)c1cc(C(C)N2C[C@H](C)N(c3nc(=O)n(C)c4c3nc(CC#N)n4CC)C[C@H]2C)ccc1F (stereo partly drawn) [Compound A135, 2-(9-ethyl-6-((2S,5R)-4-(1-(4-fluoro-3-(prop-1-en-2-yl)phenyl)ethyl)-2,5-dimethylpiperazin-1-yl)-3-methyl-2-oxo-3,9-dihydro-2H-purin-8-yl)acetonitrile] | 0.014 µM | > 150 µM |
| COC[C@H]1CN(C(C)c2ccc(F)cc2C(F)(F)F)[C@H](C)CN1c1nc(=O)n(C)c2c1nc(CC#N)n2C (single isomer, unassigned) [Compound A10b] | 0.014 µM | > 10 µM |
| CC(OC(F)F)c1cc(F)ccc1C(C)N1C[C@H](C)N(c2nc(=O)n(C)c3c2nc(CC#N)n3C)C[C@H]1C (single isomer, unassigned) [Compound A29b] | 0.004 µM | 136 µM |
| CC(c1nc2c(cc1F)OCC(C)(C)O2)N1C[C@H](C)N(c2nc(=O)n(C)c3c2nc(CC#N)n3C)C[C@H]1C (stereo partly drawn) [Compound A162, 2-(6-((2S,5R)-4-(1-(7-fluoro-3,3-dimethyl-2,3-dihydro-[1,4]dioxino[2,3-b]pyridin-6-yl)ethyl)-2,5-dimethylpiperazin-1-yl)-3,9-dimethyl-2-oxo-3,9-dihydro-2H-purin-8-yl)acetonitrile] | 0.033 µM | 60.5 µM |
| CC(c1ccc2nccnc2c1)N1C[C@H](C)N(c2cc(=O)n(C)c3c2nc(CC#N)n3C)C[C@H]1C (single isomer, unassigned) [Compound A1a] | 0.009 µM | 14.9 µM |
| CCn1c(CC#N)nc2c(N3C[C@@H](C)N(C(C)c4ccc5c(c4F)OC(C)(C)O5)C[C@@H]3C)nc(=O)n(C)c21 (stereo partly drawn) [Compound A175, 2-(9-ethyl-6-((2S,5R)-4-(1-(4-fluoro-2,2-dimethylbenzo[d][1,3]dioxol-5-yl)ethyl)-2,5-dimethylpiperazin-1-yl)-3-methyl-2-oxo-3,9-dihydro-2H-purin-8-yl)acetonitrile] | 0.005 µM | 22.2 µM |
| CCn1c(CC#N)nc2c(N3C[C@@H](C)N(C(C)c4cc(F)c5c(n4)OC(C)(C)CO5)C[C@@H]3C)nc(=O)n(C)c21 (single isomer, unassigned) [Compound A163a] | 0.013 µM | > 150 µM |
| CC[C@@H]1CN(c2nc(=O)n(C)c3c2nc(CC#N)n3C)[C@@H](C)CN1C(C)c1ccc2c(n1)OC(C)(C)CO2 (single isomer, unassigned) [Compound A159b] | 0.691 µM | 63.4 µM |
| COc1cc(F)ccc1C(C)N1C[C@H](C)N(c2nc(=O)n(C)c3c2nc(CC#N)n3C)C[C@H]1C (single isomer, unassigned) [Compound A24b] | 0.042 µM | 131 µM |
| CCn1c(CC#N)nc2c(N3C[C@@H](C)N(C(C)c4ccc5c(c4)CN(C)C5=O)C[C@@H]3C)nc(=O)n(C)c21 (stereo partly drawn) [Compound A101, 2-(6-((2S,5R)-2,5-dimethyl-4-(1-(2-methyl-1-oxoisoindolin-5-yl)ethyl)piperazin-1-yl)-9-ethyl-3-methyl-2-oxo-3,9-dihydro-2H-purin-8-yl)acetonitrile] | 4.23 µM | > 150 µM |
| CC(c1ccc2c(c1)OC(F)(F)C(F)(F)O2)N1C[C@H](C)N(c2nc(=O)n(C)c3c2nc(CC#N)n3C)C[C@H]1C (single isomer, unassigned) [Compound A79a] | 0.038 µM | 7.28 µM |
| CC(c1ccc(C(F)(F)F)cn1)N1C[C@H](C)N(c2nc(=O)n(C)c3c2nc(CC#N)n3C)C[C@H]1C (single isomer, unassigned) [Compound A148a] | 1.1 µM | 3.63 µM |
| CC(c1cccnc1C(F)(F)F)N1C[C@H](C)N(c2cc(=O)n(C)c3c2nc(CC#N)n3C)C[C@H]1C (single isomer, unassigned) [Compound A7a] | 3.11 µM | > 10 µM |
| CCn1c(=O)nc(N2C[C@@H](C)N(C(C)c3ccc4c(c3)OC(C)(C)CO4)C[C@@H]2C)c2nc(CC#N)n(C)c21 (single isomer, unassigned) [Compound A61a] | 0.002 µM | 10.1 µM |
| CCn1c(CC#N)nc2c(N3C[C@@H](C)N(C(C)c4cccc(C(C)C)c4)C[C@@H]3C)nc(=O)n(C)c21 (single isomer, unassigned) [Compound A108a] | 0.007 µM | 65.2 µM |
| CCn1c(CC#N)nc2c(N3C[C@@H](C)N(C(C)c4ccn(C)c(=O)c4)C[C@@H]3C)nc(=O)n(C)c21 (stereo partly drawn) [Compound A107, 2-(6-((2S,5R)-2,5-dimethyl-4-(1-(1-methyl-2-oxo-1,2-dihydropyridin-4-yl)ethyl)piperazin-1-yl)-9-ethyl-3-methyl-2-oxo-3,9-dihydro-2H-purin-8-yl)acetonitrile] | > 10 µM | > 150 µM |
| CCn1c(CC#N)nc2c(N3C[C@@H](C)N(C(C)c4ccc5ncc(C(F)(F)F)nc5c4)C[C@@H]3C)nc(=O)n(C)c21 (stereo partly drawn) [Compound A54, 2-(6-((2S,5R)-2,5-dimethyl-4-(1-(3-(trifluoromethyl)quinoxalin-6-yl)ethyl)piperazin-1-yl)-9-ethyl-3-methyl-2-oxo-3,9-dihydro-2H-purin-8-yl)acetonitrile] | 0.037 µM | > 150 µM |
| CC(c1ccc2c(c1F)OC(C)(C)CO2)N1C[C@H](C)N(c2nc(=O)n(C)c3c2nc(CC#N)n3C)C[C@H]1C (stereo partly drawn) [Compound A70, 2-(6-((2S,5R)-4-(1-(5-fluoro-3,3-dimethyl-2,3-dihydrobenzo[b][1,4]dioxin-6-yl)ethyl)-2,5-dimethylpiperazin-1-yl)-3,9-dimethyl-2-oxo-3,9-dihydro-2H-purin-8-yl)acetonitrile] | 0.008 µM | 9.69 µM |
| CCn1c(CC#N)nc2c(N3C[C@@H](C)N(C(C)c4ccnc5c4OCCC5(F)F)C[C@@H]3C)nc(=O)n(C)c21 (single isomer, unassigned) [Compound A103b] | 0.052 µM | > 150 µM |
| CCn1c(CC#N)nc2c(N3C[C@@H](C)N(C(C)c4cccc(C(F)(F)F)n4)C[C@@H]3C)nc(=O)n(C)c21 (single isomer, unassigned) [Compound A118b] | 0.103 µM | 65.6 µM |
| CCn1c(CC#N)nc2c(N3C[C@@H](C)N(C(C)c4ccc(N5CCOCC5)cc4)C[C@@H]3C)nc(=O)n(C)c21 (stereo partly drawn) [Compound A143, 2-(6-((2S,5R)-2,5-dimethyl-4-(1-(4-morpholinophenyl)ethyl)piperazin-1-yl)-9-ethyl-3-methyl-2-oxo-3,9-dihydro-2H-purin-8-yl)acetonitrile] | > 10 µM | > 150 µM |
| CC(c1cc2c(cc1F)OCC(C)(C)O2)N1C[C@H](C)N(c2nc(=O)n(C)c3c2nc(CC#N)n3C)C[C@H]1C (stereo partly drawn) [Compound A69, 2-(6-((2S,5R)-4-(1-(7-fluoro-3,3-dimethyl-2,3-dihydrobenzo[b][1,4]dioxin-6-yl)ethyl)-2,5-dimethylpiperazin-1-yl)-3,9-dimethyl-2-oxo-3,4,5,9-tetrahydro-2H-purin-8-yl)acetonitrile] | 0.006 µM | 3.07 µM |
| CCn1c(CC#N)nc2c(N3C[C@@H](C)N(C(C)c4ccc(CN5CCOCC5)cc4)C[C@@H]3C)nc(=O)n(C)c21 (stereo partly drawn) [Compound A139, 2-(6-((2S,5R)-2,5-dimethyl-4-(1-(4-(morpholinomethyl)phenyl)ethyl)piperazin-1-yl)-9-ethyl-3-methyl-2-oxo-3,9-dihydro-2H-purin-8-yl)acetonitrile] | 2.19 µM | 120 µM |
| CCn1c(CC#N)nc2c(N3C[C@@H](C)N(C(C)c4ccc(F)c(C(F)(F)F)c4)C[C@@H]3C)nc(=O)n(C)c21 (stereo partly drawn) [Compound A113, 2-(9-ethyl-6-((2S,5R)-4-(1-(4-fluoro-3-(trifluoromethyl)phenyl)ethyl)-2,5-dimethylpiperazin-1-yl)-3-methyl-2-oxo-3,9-dihydro-2H-purin-8-yl)acetonitrile] | 0.018 µM | > 150 µM |
| CC[C@H]1CN(C(C)c2ccc3c(c2)OC(C)(C)CO3)[C@H](CC)CN1c1nc(=O)n(C)c2c1nc(CC#N)n2C (single isomer, unassigned) [Compound A64a] | 0.00088 µM | 5.28 µM |
| CCn1c(CC#N)nc2c(N3C[C@@H](C)N(C(C)c4ccc5c(c4)OC(C)(C)CC5)C[C@@H]3C)nc(=O)n(C)c21 (single isomer, unassigned) [Compound A94a] | 0.006 µM | 16.6 µM |
